Here are results for 1 compound from patent US20250281496A1, “METHODS OF TREATING NEUROPATHY USING FORETINIB AND COMPOSITIONS THEREOF” (INDIANA UNIVERSITY RESEARCH AND TECHNOLOGY CORPORATION, priority 2022, published 2025).

For series [1], the system named is experimental diabetic neuropathy. As to the kind of experiment: Three-dimensional assessment of cutaneous innervation (volumetric nerve fiber density) in STZ-diabetic mice. Format: in vivo. Particulars: 30 mg/kg oral daily; 5 weeks post-STZ; non-treated 44.9%, vehicle 37.8%. How it is done: (§1) In total, 20 mice were injected with 100 mg/kg bodyweight of streptozotocin (STZ, […], Sigma Aldrich) in 0.1M citrate buffer (pH 4.5) on two consecutive days respectively, to induce diabetes type 1^27. Prior to the first injection and in weekly intervals thereafter, all animals were weighted and underwent tail prick blood sugar measurements using a clinical grade monitoring system (Contour One, Ascensia Diabetes Care, Mississauga, Ontario) as previously described. Mice were considered diabetic when blood glucose was at least 15 mmol/L (270 mg/dl). Prior to diabetes induction the mice were block randomized into experimental groups (n=10 Foretinib treatment, n=5 vehicle treatment, n=5 non-treated diabetic control). An additional 5 non-diabetic animals served as a healthy control. Foretinib treatments started 1-week post-diabetes induction. Foretinib was prepared fresh daily by dissolving 6 mg Foretinib in 1 ml of 1% (Hydroxypropyl)-methyl cellulose (09963, Sigma Aldrich) and 0.2% sodium dodecyl sulfate ([…], Sigma Aldrich) in sterile H2O. […] Cutaneous nerve fibers were semiautomatically traced using batch processing with consistent fluorescence intensity thresholds across the entire data set. Volumetric nerve fiber density was determined as total nerve fiber volume per skin tissue volume for an 830×830×200 μm region of interest.

The test system is the same in series [2]. As to the kind of experiment: Lower extremity nerve histomorphology (sciatic and sural nerve) in STZ-diabetic mice. It is filed as in vivo. Particulars: 30 mg/kg oral daily, five weeks post-diabetes induction. How it is done: as §1, with “A custom-trained deep learning model based on the open-source software AxonDeepSeg^29 determined axon diameter and myelin sheath thickness and g-ratio for entire” for “Cutaneous”, “cross sections.” for “fibers were semiautomatically traced using batch processing with consistent fluorescence intensity thresholds across the entire data set. Volumetric nerve fiber density was determined as total nerve fiber volume per skin tissue volume for an 830×830×200 μm region of interest.”

For series [3], the system named is Embryonic rat sensory neurons. Nature of the series: Myelination in cultured embryonic rat sensory neurons (MBP-positive area). Format: cell-based. Particulars: primary wt neuronal/SC co-cultures, 10 days since induction of myelination, n=4, p<0.0001. The text has this:
A) Embryonic rat sensory neurons were harvested, dissociated and cultured. Myelination was induced in presence of Foretinib (right image) or vehicle only (left image). 10 days since induction of myelination the cultures were fixed and immunosatined for myelin basic protein (MBP) (green), bIII-tubulin (red) and DAPI (blue). Scale bar: […]. B) Quantitative representation of the area proportion occupied by MBP-positive myelin segments (as in A) n=4, p<0.0001.

For series [4] the following is noted: mouse, in vivo, ip, 20 days. How it is done: (§2) A) Quantitative representation of changes in mouse body weight in dependence of the indicated IP daily doses of Foretinib (n=2 per dose). B) Changes in mouse blood plasma concentration of 5 mg/kg IP injected Foretinib during 48 hours after a single injection (n=3).
(§3) It is expected that Foretinib will protect against the diabetes-induced loss of terminal axons and ensheathing SC. In our previous study, 30 mg/kg of foretinib was administered via daily gavage for a course of 5 weeks. Although reported as non-toxic, at this dose the drug, along with a strong neuroprotective effect, caused lethargic behavior, ruffled fur and weight loss requiring early termination of the experiment. Due to the substantial prevalence of type 2 diabetes, we will examine the effect of foretinib treatment on type 2 diabetic mice (db/db). To define the maximal tolerable dose, we treated wt mice by daily intraperitoneal (IP) injection of several various dosages of foretinib for 20 days, while assessing the mice weight and behavior. […] Next, to define the pharmacokinetic (PK) characteristics of the drug, we performed a mass spectrometry analysis of blood samples from wt mice treated with 5 mg/kg (n=3 mice per dose per time point). We observed that IP injection of 5 mg/kg of foretinib generated nearly 100 ng/ml blood concentration during first 4 hours, declining by 4 ng/ml/hour (FIG. 7B).

A short description of series [5]: Pharmacokinetics: blood plasma concentration after single IP injection, mass spectrometry. It is filed as in vivo, mice. How it is done: as §2, §3

On to `COc1cc2c(Oc3ccc(NC(=O)C4(C(=O)Nc5ccc(F)cc5)CC4)cc3F)ccnc2cc1OCCCN1CCOCC1` [Foretinib, N1-[3-Fluoro-4-({6-methoxy-7-[3-(morpholin-4-yl)propoxy]quinolin-4-yl}oxy)phenyl]-N′1-(4-fluorophenyl)cyclopropane-1,1-dicarboxamide], for which the “cutaneous nerve fiber density as % of non-diabetic reference” value in series [1] is reported as 67.3%. Besides, in series [2], the “peripheral nerve histomorphology (axon diameter, myelin sheath thickness, g-ratio)” value is given as “did not affect peripheral nerve histomorphology”. Besides, the “axonal myelination (area proportion of MBP-positive myelin segments)” value in series [3] is listed as “significantly improved axonal myelination”. Moreover, in series [4], the “maximal tolerable dose not affecting behavior and body weight” value amounted to 5 mg/kg. In addition, the “decline of blood concentration” value in series [5] (5 mg/kg IP single injection, after first 4 hours) was determined as 4 ng/mL/h. Besides, the “blood concentration during first 4 hours” value in series [5] (5 mg/kg IP single injection, wt mice, n=3) was about 100 ng/mL. Further, the “blood concentration expressed in molar units” value in series [5] (5 mg/kg IP, conversion of 100 ng/ml) stood at 160 nM.
